Entries after “also recorded” stand apart in the source; their conditions may differ. Like-named read-outs stand apart in the source and are kept apart here.
Legend:
[1] = PET quantification of kidney activity of [^68Ga]Ga-PSMA-11 with NaCl or paraaminohippurate; conditions: for relative change of kidney uptake with 200 mg/mL paraaminohippurate coinjection in comparison to 0.9% NaCl: negative = reduction; for effect of paraaminohippurate coinjection on renal uptake (in words): compared with NaCl coinjection
Procedure: PET experiments were conducted by CROmed Translational Research Center Ltd. Healthy adult male Wistar rats (3 animals per group) received an intraperitoneal priming dose of 1 mL of 0.9% NaCl, 1 mL of paraaminohippurate (200 mg/mL), or 1 mL of Arg-Lys (200 mg/mL), followed by 15–30 MBq of [^68Ga]Ga-PSMA-11 once intravenously in combination with 0.9% NaCl, paraaminohippurate, or Arg-Lys. PET examinations were conducted on an upgraded small-animal PET PRIMATE P4 scanner (Concorde Microsystems Inc.) at 5 min and 0.5, 1, 2, and 4 h after injection.

[2] = parameters: species or system Wistar rats; conditions: male, Wistar, rat, in vivo
Procedure: (§1) Experiments were conducted at the Helmholtz-Zentrum Dresden-Rossendorf, Institute of Radiopharmaceutical Cancer Research (approved by Landesdirektion Dresden, number DD24.1-5131/450/16, July 6, 2018). Groups of 5 male Wistar rats each (average body weight, 210 g) were randomized for coinjection of 0.9% NaCl, Arg-Lys solution (200 mg/mL), or paraaminohippurate solution (200 mg/mL). The animals received an intraperitoneal priming dose of 1.0 mL of 0.9% NaCl, 1.0 mL of Arg-Lys, or 1.0 mL of paraaminohippurate solution 10 min before radiotracer injection. The injection solutions for the biodistribution were prepared as mix of [^177Lu]Lu-DOTATOC solution added to 1.5 mL of NaCl, Arg-Lys, or paraaminohippurate solution. The average injected activity ± SD of [^177Lu]Lu-DOTATOC was 4.32 ± 0.51 MBq/kg in 4 animals, whereas 1 rat per group received 149 ± 15 MBq/kg.
As for paraaminohippurate, 500 mg paraaminohippurate were administered per rat; […] thereof via intravenous injection; this by itself already results in an initial plasma concentration far exceeding the saturating 800 mg/L stated in ([16]). […]
Animals were killed 5 and 60 min after radiotracer injection; organs and tissues of interest were extracted, and their mass and activity were determined. Activities were counted in an automatic γ-counter, which was cross-calibrated with a dose calibrator by 3 standard samples. […]

[3] = SPECT/CT quantification of kidney activity after coinjection of radiotracers with NaCl, Arg-Lys or paraaminohippurate; assay type: in vivo, Wistar rats; conditions: for relative change of kidney uptake with 200 mg/mL paraaminohippurate coinjection in comparison to 0.9% NaCl: imaging, negative = reduction; for effect of paraaminohippurate coinjection on renal uptake (in words): compared with NaCl coinjection
Procedure: Approximately 10 min later, 50–60 MBq of the ^177Lu-radiolabeled radiopharmaceuticals were injected intravenously in combination with 0.5 mL of 0.9% NaCl, 0.5 mL of paraaminohippurate (200 mg/mL), or 0.5 mL of Arg-Lys (200 mg/mL). At 0.5, 1, 4, 8, and 24 h after injection of the ^177Lu-radiolabeled compounds, SPECT/CT imaging was conducted under isoflurane anesthesia, using Mediso nano-SPECT/CT with a Silver upgrade system (Mediso Kft). VivoQuant version 1.22 software (VivoQuant) was used to determine the volume of interest and to quantify the activity in the kidneys.

[4] = Tolerability of paraaminohippurate coadministration; assay type: in vivo; conditions: rats, 200 mg/mL solution, intraperitoneal priming plus intravenous coinjection
Procedure: as §1, with “MBq/kg. […]” for “MBq/kg.”
Approximately 10 min later, 50–60 MBq of the ^177Lu-radiolabeled radiopharmaceuticals were injected intravenously in combination with 0.5 mL of 0.9% NaCl, 0.5 mL of paraaminohippurate (200 mg/mL), or 0.5 mL of Arg-Lys (200 mg/mL). […] VivoQuant version 1.22 software (VivoQuant) was used to determine the volume of interest and to quantify the activity in the kidneys.

[5] = parameters: method as in PMID 38637142; conditions: 12 patients treated with [^177Lu]Lu-DOTATOC; cited from earlier work
[6] = glomerular filtration and proximal tubular secretion; cited from earlier work
[7] = NaCl coinjection, AUC within first hour after injection
[8] = PAH coinjection in comparison to NaCl
[9] = PAH coinjection, AUC within first hour after injection
[10] = independent of the coinjected compound
[11] = paraaminohippurate vs NaCl coinjection
[12] = male, Wistar, rat, in vivo, %ID/g of kidney tissue

Which “relative change of kidney uptake with 200 mg/mL paraaminohippurate coinjection in comparison to 0.9% NaCl” value (“relative change of kidney uptake … to 0.9% NaCl” below) ([1]; 5 min) does the source give for `O=C([O-])CN(CCN(CC(=O)[O-])Cc1cc(CCC(=O)NCCCCCC(=O)NCCCC[C@H](NC(=O)N[C@@H](CCC(=O)O)C(=O)O)C(=O)O)ccc1[O-])Cc1cc(CCC(=O)O)ccc1[O-].[68Ga+3].[OH3+]` [[^68Ga]Ga-PSMA-11] here?
The value was −21%.

And the “relative change of kidney uptake … to 0.9% NaCl” value ([1]; 0.5 h)?
Its value is −23%.

What about the “relative change of kidney uptake … to 0.9% NaCl” value ([1]; 1 h) of the same compound?
Its value is −37%.

And the “relative change of kidney uptake … to 0.9% NaCl” value ([1]; 2 h)?
Its value is −5%.

And the “relative change of kidney uptake … to 0.9% NaCl” value ([1]; 4 h)?
Its value is “+15%”.

And the “kidney AUC0–1 h, NaCl” value [1, 7]?
The value was 45.9 %ID/g*h.

And the “kidney AUC0–1 h, Difference” value [1, 8]?
The value was −19%.

And the “kidney AUC0–1 h, PAH” value [1, 9]?
Its value is 37.1 %ID/g*h.

And the “effect of paraaminohippurate coinjection on renal uptake (in words)” value (“effect of paraaminohippurate coinjection” for short) [1]?
Its value is “To a lesser extent, paraaminohippurate-mediated nephroprotection was observed”.

What about the “effect of paraaminohippurate coinjection” value ([1]; listed as PSMA-11) of the same compound?
The value was “reduced”.

What about the “time of peak kidney activity after injection” value [1, 10] of the same compound?
Its value is 0.5 h.

And the “reduction of kidney AUC within the first hour after injection” value [1, 11]?
Its value is 19%.

For `C[C@@H](O)[C@@H]1NC(=O)[C@H](CCCCN)NC(=O)[C@@H](Cc2c[nH]c3ccccc23)NC(=O)[C@H](Cc2ccc(O)cc2)NC(=O)[C@@H](NC(=O)[C@@H](Cc2ccccc2)NC(=O)CN2CCN(CC(=O)O)CCN(CC(=O)O)CCN(CC(=O)O)CC2)CSSC[C@@H](C(=O)N[C@H](CO)[C@@H](C)O)NC1=O` [[^177Lu]Lu-DOTATOC, metal not drawn], which kidney uptake ([2]; 5 min) is on record?
Its kidney uptake is 2.93 ± 0.42 %ID/g.

What about the kidney uptake ([2]; 1 h) of the same compound?
Its kidney uptake is 2.16 ± 0.31 %ID/g.

What about the “%ID/g of kidney tissue” value ([3]; male, Wistar, rat, in vivo, 0.5 h) of the same compound?
Its value is 13.3 (8.4) %ID/g.

And the “%ID/g of kidney tissue” value ([3]; male, Wistar, rat, in vivo, 8 h)?
The value was 2.7 (0.0) %ID/g.

What about the tissue uptake at 1 h [3, 12] of the same compound?
The tissue uptake at 1 h was 12.2 %ID/g.

And the tissue uptake at 4 h [3, 12]?
Its tissue uptake at 4 h is 2.7 %ID/g.

And the tissue uptake at 24 h [3, 12]?
The tissue uptake at 24 h was 2.4 %ID/g.

What about the “kidney AUC0–24 h, Difference” value ([3]; rat, in vivo) of the same compound?
The value was −51%.

What about the “kidney AUC0–24 h, NaCl” value ([3]; rat, in vivo) of the same compound?
The value was 87.0 %ID/g*h.

What about the “kidney AUC0–24 h, PAH” value ([3]; rat, in vivo) of the same compound?
The value was 43.0 %ID/g*h.

What about the “time of peak / maximum kidney activity after injection” value ([3]; rat, in vivo) of the same compound?
The value was 0.5 h.

Which “relative change of kidney uptake … to 0.9% NaCl” value ([3]; 0.5 h) does the source give for `O=C([O-])CC[C@H](NC(=O)N[C@@H](CCCCNC(=O)CCCCCCC(=O)NCCCC[C@@H](NC(=O)[C@@H](Cc1ccccc1)NC(=O)[C@@H](Cc1ccc(O)c(I)c1)NC(=O)CC[C@H](C(=O)[O-])N1CCN(CC(=O)[O-])CCN(CC(=O)[O-])CCN(CC(=O)[O-])CC1)C(=O)[O-])C(=O)[O-])C(=O)[O-].[177Lu+3].[H+].[H+].[H+].[H+].[H+]` [[^177Lu]Lu-PSMA-I&T] here?
The value was −18%.

And the “relative change of kidney uptake … to 0.9% NaCl” value ([3]; 1 h)?
Its value is −22%.

And the “relative change of kidney uptake … to 0.9% NaCl” value ([3]; 4 h)?
The value was −61%.

What about the “kidney AUC0–1 h, NaCl” value [3, 7] of the same compound?
Its value is 64.7 %ID/g*h.

And the “kidney AUC0–1 h, Difference” value [3, 8]?
Its value is −34%.

And the “kidney AUC0–1 h, PAH” value [3, 9]?
The value was 42.8 %ID/g*h.

What about the “effect of paraaminohippurate coinjection” value [3] of the same compound?
The value was “To a lesser extent, paraaminohippurate-mediated nephroprotection was observed”.

And the “effect of paraaminohippurate coinjection” value ([3]; listed as PSMA-I&T)?
Its value is “reduced”.

And the “time of peak / maximum kidney activity after injection” value [3, 10]?
The value was 0.5 h.

What about the “reduction of kidney AUC within the first hour after injection” value [3, 11] of the same compound?
The value was 34%.

Which results are given for `Nc1ccc(C(=O)NCC(=O)[O-])cc1.[Na+]` [paraaminohippurate, sodium paraaminohippurate]?
tolerability / toxicity of coadministration [4]: well tolerated, and no immediate or delayed toxicity was observed; tolerability / toxicity of coadministration ([4]; listed as Paraaminohippurate): well tolerated, with no toxicity observed; kidney uptake of the radiolabeled compound versus Arg-Lys solution [5]: comparable; tolerability in patients [5]: well tolerated; fraction filtered by the kidney from the plasma in a single pass-through [6]: more than 90%

For [^177Lu]Lu-DOTATATE, which “relative change of kidney uptake … to 0.9% NaCl” value ([3]; 0.5 h) is on record?
Its value is −80%.

What about the “relative change of kidney uptake … to 0.9% NaCl” value ([3]; 1 h) of the same compound?
The value was −83%.

What about the “relative change of kidney uptake … to 0.9% NaCl” value ([3]; 4 h) of the same compound?
Its value is −56%.

What about the “relative change of kidney uptake … to 0.9% NaCl” value ([3]; 8 h) of the same compound?
Its value is −49%.

And the “relative change of kidney uptake … to 0.9% NaCl” value ([3]; 24 h)?
The value was −46%.

And the “kidney AUC0–24 h, NaCl” value ([3]; NaCl coinjection, AUC within 24 h after injection)?
Its value is 113.7 %ID/g*h.

And the “kidney AUC0–24 h, Difference” value [3, 8]?
Its value is −60%.

And the “kidney AUC0–24 h, PAH” value ([3]; PAH coinjection, AUC within 24 h after injection)?
The value was 45.4 %ID/g*h.

What about the “effect of paraaminohippurate coinjection” value [3] of the same compound?
The value was “significantly lower; also recorded: markedly diminished; also recorded: significantly reduced”.

What about the “time of peak / maximum kidney activity after injection” value [3, 10] of the same compound?
Its value is 0.5 h.
